# Experimental data: US9827221B2, “Crystalline solids of a metAP-2 inhibitor and methods of making and using same” (Zafgen, Inc., priority 2010, dated 2017)
# Key:
# Format in all cases: physicochemical
# [1] = Solubility in solvent (e.g. aqueous solution that may include a buffer) with pH greater or equal to about 8.0; conditions: pH 8, aqueous buffer, ca. 20° C.
# [2] = Solubility in diisopropyl ether; conditions: organic solvent or mixture
# [3] = Stability of the crystalline form to grinding (mortar and pestle; PLM, XRPD); conditions: ca. 500 mg ground with mortar and pestle for approximately 5 minutes
# Procedure: A sample (ca. 500 mg) from the scale-up of crystalline compound as in Example 2 was placed onto a mortar (Agate material, H: 35 mm, L: 77 mm). The sample was then ground using a pestle (length: 80 mm; grinding diameter: 17 mm) for approximately 5 minutes. Throughout the grinding procedure, the sample was allowed to stand for ca. 10 seconds intermittently to ensure that significant heat was not generated. PLM indicated birefrigent material with particle sizes measuring between about 20 μm and 80 μm in length.
# [4] = Solid-form stability of Form C on storage (conversion to Form A)
# Procedure: A sample of amorphous material of 6-O-(4-dimethylaminoethoxy)cinnamoyl fumagillol was exposed to vapors of neat trichloroethane at ambient temperature. The amorphous form readily deliquesced. The deliquesced sample was stored in a cold environment and evaporated to dryness using a Genevac centrifuge evaporator. The sample was then sealed, submerged in dry ice for ca. 15 minutes and stored in a freezer ([…]). The sample remained glassy during storage in the freezer (−20° C., 9 days), and was then stored at 5° C. (9 days), resulting in crystalline, Form C (see FIG. 13 for micrograph). A portion of the Form C sample was left at ambient temperature.
solubility [1] [mg/mL],solubility ([2]; 50° C.) [mg/mL],solubility ([2]; room temperature (ca. 20° C.)) [mg/mL],crystallinity after grinding (XRPD) [3],relative stability of the crystalline forms ([4]; Form C relative to Form A),solid form conversion on storage ([4]; sample left at ambient temperature),solid form conversion on storage ([4]; sample stored at 5° C.),SMILES
< 0.2,~102,~25,remained highly crystalline,,,,"CO[C@@H]1[C@H](OC(=O)/C=C/c2ccc(OCCN(C)C)cc2)CCC2(CO2)[C@H]1C1(C)OC1CC=C(C)C (stereo partly shown) [Form A, 6-O-(4-dimethylaminoethoxy)cinnamoyl fumagillol]"
,,,,metastable relative to Form A,converted to Form A after three days,converted to Form A after three days,"CO[C@@H]1[C@H](OC(=O)/C=C/c2ccc(OCCN(C)C)cc2)CCC2(CO2)[C@H]1C1(C)OC1CC=C(C)C (stereo partly shown) [Form C, 6-O-(4-dimethylaminoethoxy)cinnamoyl fumagillol]"
